The record followed here is US9045491B2, “Thienyl [3,2-D] pyrimidin-4-one compounds, preparation method, pharmaceutical compositions and use thereof” (SHANGHAI INSTITUTE OF MATERIA MEDICA, CHINESE ACADEMY OF …, priority 2011, dated 2015).

Type in all cases: biochemical
Experiment [1] deals with dipeptidyl peptidase 7 (DPP 7) (Homo sapiens, UniProt Q9UHL4). As to the kind of experiment: DPP 7 activity screening. The conditions noted are these: N.I. = No Inhibition. Put shortly: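 Sample dissolved in DMSO, final DMSO kept at a level not affecting activity; tested at a single concentration from preliminary screening (e.g. 20 μg/mL). Dose-response data fitted to sigmoidal variable-slope model with bottom and top fixed at 0 and 100.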

The target in a further experiment is T1, FAP (Homo sapiens, UniProt Q12884).
T1 sequence (Q12884 1-760): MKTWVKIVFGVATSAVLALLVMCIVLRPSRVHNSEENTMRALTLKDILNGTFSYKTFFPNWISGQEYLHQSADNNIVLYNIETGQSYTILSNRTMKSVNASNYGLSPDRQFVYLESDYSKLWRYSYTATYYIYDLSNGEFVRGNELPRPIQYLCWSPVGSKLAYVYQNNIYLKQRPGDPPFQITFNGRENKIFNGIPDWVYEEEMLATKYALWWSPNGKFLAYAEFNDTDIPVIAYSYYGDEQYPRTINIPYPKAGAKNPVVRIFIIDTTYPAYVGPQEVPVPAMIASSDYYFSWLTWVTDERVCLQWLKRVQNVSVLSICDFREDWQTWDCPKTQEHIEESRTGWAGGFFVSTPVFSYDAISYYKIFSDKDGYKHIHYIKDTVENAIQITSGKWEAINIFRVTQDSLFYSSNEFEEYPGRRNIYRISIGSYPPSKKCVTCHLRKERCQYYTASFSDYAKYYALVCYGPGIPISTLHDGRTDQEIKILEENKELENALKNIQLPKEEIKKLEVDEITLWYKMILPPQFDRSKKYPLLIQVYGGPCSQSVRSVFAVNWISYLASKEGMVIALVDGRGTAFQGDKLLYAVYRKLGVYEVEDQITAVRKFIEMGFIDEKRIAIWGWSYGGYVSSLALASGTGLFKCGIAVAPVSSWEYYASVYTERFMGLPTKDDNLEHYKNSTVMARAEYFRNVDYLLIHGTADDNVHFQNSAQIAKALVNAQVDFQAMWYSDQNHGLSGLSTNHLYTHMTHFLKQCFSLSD
Briefly: FAP inhibition (Table 1). As to conditions: N.I. = No Inhibition.

A further experiment addresses T2, Human DPP 9 (Homo sapiens, UniProt Q86TI2).
T2 construct: made in house; host or cells: insect cells, baculovirus Bac-to-Bac
Briefly: DPP 9 activity screening (Ala-Pro-AMC fluorescence). The conditions noted are these: N.I. = No Inhibition. The gist of the method:
(§1)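 Insect-cell baculovirus-expressed human enzymes hydrolyse Ala-Pro-AMC; AMC release monitored kinetically as fluorescence rate (ex 355/em 460 nm). Primary screen at a single concentration (e.g. 20 μg/mL); dose–response fitted to variable-slope sigmoid with bottom/top fixed at 0 and 100.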

A further experiment has as its target T3, human DPP 8 (Homo sapiens, UniProt Q6V1X1).
T3 construct: made in house; host or cells: insect cells, baculovirus Bac-to-Bac
As to the kind of experiment: DPP 8 activity screening (Ala-Pro-AMC fluorescence). As to conditions: N.I. = No Inhibition. Put shortly: as §1

A further experiment addresses T4, human DPP IV (Homo sapiens, UniProt P27487).
T4 construct: extracellular fragment of protease DPP IV (aa29-766); made in house; host or cells: baculovirus expression system Bac-to-Bac
As to the kind of experiment: DPP IV activity screening (Ala-Pro-AMC fluorescence). The gist of the method:
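DPP IV activity is taken as the linear rate of fluorescence change at 460 nm. Samples are dissolved in DMSO and screened at a single concentration (e.g. 20 μg/mL). Dose-response data are fit to a variable-slope sigmoidal model with bottom and top fixed at 0 and 100.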

T2 sequence (Q86TI2 whole entry): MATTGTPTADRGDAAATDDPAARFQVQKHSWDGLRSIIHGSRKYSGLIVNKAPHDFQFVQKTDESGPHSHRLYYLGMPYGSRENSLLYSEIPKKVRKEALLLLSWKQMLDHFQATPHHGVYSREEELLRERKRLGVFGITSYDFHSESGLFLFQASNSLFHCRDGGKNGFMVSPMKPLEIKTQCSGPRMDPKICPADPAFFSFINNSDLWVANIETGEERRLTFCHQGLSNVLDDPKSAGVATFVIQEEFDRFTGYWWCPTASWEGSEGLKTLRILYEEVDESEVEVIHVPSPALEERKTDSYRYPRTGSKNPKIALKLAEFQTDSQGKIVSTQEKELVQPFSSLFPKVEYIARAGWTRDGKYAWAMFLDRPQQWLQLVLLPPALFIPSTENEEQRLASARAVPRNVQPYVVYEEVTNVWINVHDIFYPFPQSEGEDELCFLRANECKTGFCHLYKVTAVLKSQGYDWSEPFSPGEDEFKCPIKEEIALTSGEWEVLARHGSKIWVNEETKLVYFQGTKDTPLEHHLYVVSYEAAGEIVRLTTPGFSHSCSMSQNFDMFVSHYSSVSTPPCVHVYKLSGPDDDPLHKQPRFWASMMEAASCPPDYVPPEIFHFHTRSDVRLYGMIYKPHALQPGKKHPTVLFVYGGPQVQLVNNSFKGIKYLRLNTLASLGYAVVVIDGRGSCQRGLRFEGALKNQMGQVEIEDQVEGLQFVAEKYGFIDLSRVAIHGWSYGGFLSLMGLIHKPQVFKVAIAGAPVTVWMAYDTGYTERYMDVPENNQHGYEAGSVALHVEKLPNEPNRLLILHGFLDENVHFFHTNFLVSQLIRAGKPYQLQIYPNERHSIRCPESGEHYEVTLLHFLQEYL
T4 sequence (P27487 29-766): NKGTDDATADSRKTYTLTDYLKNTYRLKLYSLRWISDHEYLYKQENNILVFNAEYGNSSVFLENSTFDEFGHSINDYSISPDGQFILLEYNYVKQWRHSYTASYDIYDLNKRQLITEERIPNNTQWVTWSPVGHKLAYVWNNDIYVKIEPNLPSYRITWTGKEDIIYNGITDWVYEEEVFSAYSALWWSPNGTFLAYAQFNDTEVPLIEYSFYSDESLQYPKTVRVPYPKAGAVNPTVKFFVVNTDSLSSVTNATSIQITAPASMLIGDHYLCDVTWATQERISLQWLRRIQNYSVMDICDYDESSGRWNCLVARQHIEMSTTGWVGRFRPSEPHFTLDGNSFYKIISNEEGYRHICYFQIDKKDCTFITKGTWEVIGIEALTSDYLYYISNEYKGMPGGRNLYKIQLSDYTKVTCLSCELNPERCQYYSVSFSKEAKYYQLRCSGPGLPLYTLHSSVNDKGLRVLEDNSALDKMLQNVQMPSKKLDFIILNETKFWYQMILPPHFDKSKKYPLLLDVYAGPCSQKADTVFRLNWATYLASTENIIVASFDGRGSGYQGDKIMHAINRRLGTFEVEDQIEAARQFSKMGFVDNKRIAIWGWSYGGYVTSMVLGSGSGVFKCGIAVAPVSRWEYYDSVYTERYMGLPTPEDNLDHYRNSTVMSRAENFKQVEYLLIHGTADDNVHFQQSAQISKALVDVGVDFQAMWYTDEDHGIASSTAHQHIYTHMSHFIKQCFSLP
T3 sequence (Q6V1X1 whole entry): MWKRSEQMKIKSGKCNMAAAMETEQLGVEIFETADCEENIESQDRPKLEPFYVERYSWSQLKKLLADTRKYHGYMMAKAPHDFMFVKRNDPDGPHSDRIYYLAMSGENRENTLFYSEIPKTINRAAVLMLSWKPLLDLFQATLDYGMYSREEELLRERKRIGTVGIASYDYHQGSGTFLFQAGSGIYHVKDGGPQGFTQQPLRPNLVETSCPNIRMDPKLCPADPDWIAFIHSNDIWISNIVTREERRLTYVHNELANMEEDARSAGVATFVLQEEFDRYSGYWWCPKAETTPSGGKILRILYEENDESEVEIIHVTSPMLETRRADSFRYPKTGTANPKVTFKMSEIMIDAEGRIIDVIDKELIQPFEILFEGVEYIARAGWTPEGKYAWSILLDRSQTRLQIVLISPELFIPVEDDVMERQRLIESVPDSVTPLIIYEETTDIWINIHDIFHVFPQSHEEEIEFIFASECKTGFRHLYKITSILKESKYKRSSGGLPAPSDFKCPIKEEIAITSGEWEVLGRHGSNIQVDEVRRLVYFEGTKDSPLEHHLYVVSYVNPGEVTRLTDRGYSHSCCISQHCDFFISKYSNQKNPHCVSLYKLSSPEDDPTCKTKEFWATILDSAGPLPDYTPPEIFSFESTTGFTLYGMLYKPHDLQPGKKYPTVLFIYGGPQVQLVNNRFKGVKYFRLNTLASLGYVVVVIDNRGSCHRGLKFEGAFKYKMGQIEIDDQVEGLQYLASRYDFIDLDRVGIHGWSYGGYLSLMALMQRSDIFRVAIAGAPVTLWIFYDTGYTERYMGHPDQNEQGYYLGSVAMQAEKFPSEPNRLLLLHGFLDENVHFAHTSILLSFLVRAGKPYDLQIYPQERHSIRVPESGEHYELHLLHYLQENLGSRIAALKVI

As for `COC(=O)[C@@H](NC(=O)c1cc2nc(N3CCC[C@@H](N)C3)n(Cc3ccccc3C#N)c(=O)c2s1)C(C)C` [Compound 100, (S)-methyl 2-(2-((R)-3-aminopiperidin-1-yl)-3-(2-cyanobenzyl)-4-oxo-3,4-dihydrothieno[3,2-d]pyrimidine-6-carboxamido)-3-methylbutanoate], the “DPP 7 IC50” value in experiment [1] is recorded as “N.I”. Besides, the IC50 (as a rule, the point on the concentration scale where inhibition reaches its midpoint) against FAP was 119 µM; on Human DPP 9, 117 µM; against human DPP 8 it was 43.1 µM; against human DPP IV, 0.0283 µM.
In the case of `COC(=O)c1csc2c(=O)n(Cc3ccccc3C#N)c(N3CCC[C@@H](N)C3)nc12` [Compound 57, (R)-methyl 2-(3-aminopiperidin-1-yl)-3-(2-cyanobenzyl)-4-oxo-3,4-dihydrothieno[3,2-d]pyrimidine-7-carboxylate], the IC50 in experiment [1] came to 69.5 µM; at human DPP IV it was 0.02 µM. In addition, the “FAP IC50” value at FAP was “N.I”. For the same molecule, the “DPP 9 IC50” value on Human DPP 9 is on record as “N.I”. Also, on human DPP 8, the “DPP 8 IC50” value is reported as “N.I”.
`CN1CCN(C(=O)c2csc3c(=O)n(Cc4ccccc4C#N)c(N4CCC[C@@H](N)C4)nc23)CC1` [Compound 70, (R)-2-((2-(3-aminopiperidin-1-yl)-7-(4-methylpiperazine-1-carbonyl)-4-oxothieno[3,2-d]pyrimidin-3(4H)-yl)-methyl)benzonitrile]: the “DPP 7 IC50” value in experiment [1] is listed as “N.I”. The IC50 at FAP came to 136 µM; on Human DPP 9, 94.5 µM; against human DPP 8, 38.9 µM; against human DPP IV it was 0.0186 µM.
As to `N#Cc1ccccc1Cn1c(N2CCC[C@@H](N)C2)nc2cc(C(=O)NCc3ccccc3Cl)sc2c1=O` [Compound 110, (R)-2-(3-aminopiperidin-1-yl)-N-(2-chlorobenzyl)-3-(2-cyanobenzyl)-4-oxo-3,4-dihydrothieno[3,2-d]pyrimidine-6-carboxamide], the “DPP 7 IC50” value in experiment [1] is reported as “N.I”. Also, the 50% inhibitory concentration (IC50) was 133 µM against FAP, 51.2 µM against Human DPP 9, 80.6 µM at human DPP 8 and 0.0248 µM on human DPP IV.
With `N#Cc1ccccc1Cn1c(N2CCC[C@@H](N)C2)nc2cc(CN3CCOCC3)sc2c1=O` [Compound 95, (R)-2-((2-(3-aminopiperidin-1-yl)-6-(morpholinomethyl)-4-oxothieno-[3,2-d]pyrimidin-3(4H)-yl)methyl)benzonitrile], in experiment [1], the “DPP 7 IC50” value is “N.I”. The “FAP IC50” value at FAP is reported as “N.I”. Moreover, at Human DPP 9, the “DPP 9 IC50” value is on record as “N.I”. Besides, the “DPP 8 IC50” value at human DPP 8 is given as “N.I”. At human DPP IV, this molecule displayed a half-maximal inhibitory concentration (IC50) of 0.0592 µM.
With `CNC(=O)c1cc2nc(N3CCC[C@@H](N)C3)n(Cc3ccccc3C#N)c(=O)c2s1` [Compound 104, (R)-2-(3-aminopiperidin-1-yl)-3-(2-cyanobenzyl)-N-methyl-4-oxo-3,4-dihydrothieno[3,2-d]pyrimidine-6-carboxamide], the “DPP 7 IC50” value in experiment [1] is recorded as “N.I”. Moreover, the half-maximal inhibitory concentration (IC50) turned out to be 239 µM against FAP, 254 µM against Human DPP 9 and 0.0171 µM against human DPP IV. The “DPP 8 IC50” value at human DPP 8 was “N.I”.
With `CC(C)CNC(=O)c1cc2nc(N3CCC[C@@H](N)C3)n(Cc3ccccc3C#N)c(=O)c2s1` [Compound 116, (R)-2-(3-aminopiperidin-1-yl)-3-(2-cyanobenzyl)-N-isobutyl-4-oxo-3,4-dihydrothieno[3,2-d]pyrimidine-6-carboxamide], in experiment [1], the “DPP 7 IC50” value was “N.I”. Besides, the concentration for half-maximal inhibition (IC50) stood at 126 µM at FAP, 95.3 µM at human DPP 8 and 0.0186 µM at human DPP IV. Also, the “DPP 9 IC50” value on Human DPP 9 was “N.I”.
`CC(C)NC(=O)c1cc2nc(N3CCC[C@@H](N)C3)n(Cc3ccccc3C#N)c(=O)c2s1` [Compound 115, (R)-2-(3-aminopiperidin-1-yl)-3-(2-cyanobenzyl)-N-isopropyl-4-oxo-3,4-dihydrothieno[3,2-d]pyrimidine-6-carboxamide]: in experiment [1], the “DPP 7 IC50” value was “N.I”. Moreover, the IC50 against FAP was 146 µM; against Human DPP 9, 167 µM; on human DPP 8, 181 µM; against human DPP IV it was 0.0145 µM.
As to `Cc1ccc(CNC(=O)c2cc3nc(N4CCC[C@@H](N)C4)n(Cc4ccccc4C#N)c(=O)c3s2)cc1` [Compound 122, (R)-2-(3-aminopiperidin-1-yl)-3-(2-cyanobenzyl)-N-(4-methylbenzyl)-4-oxo-3,4-dihydrothieno[3,2-d]-pyrimidine-6-carboxamide], in experiment [1], the “DPP 7 IC50” value was “N.I”. Moreover, the “FAP IC50” value at FAP is on record as “N.I”. For the same molecule, the results for the IC50 against Human DPP 9 and on human DPP IV were 53.1 µM and 0.0263 µM, respectively. Moreover, the “DPP 8 IC50” value on human DPP 8 is reported as “N.I”.
`COCCCNC(=O)c1cc2nc(N3CCC[C@@H](N)C3)n(Cc3ccccc3C#N)c(=O)c2s1` [Compound 112, (R)-2-(3-aminopiperidin-1-yl)-3-(2-cyanobenzyl)-N-(3-methoxypropyl)-4-oxo-3,4-dihydrothieno[3,2-d]-pyrimidine-6-carboxamide]: the “DPP 7 IC50” value in experiment [1] is “N.I”. In addition, the 50% inhibitory concentration (IC50) against FAP is 213 µM; against Human DPP 9, 159 µM; against human DPP 8, 69.1 µM; against human DPP IV, 0.0238 µM.
For the molecule `CN(C)C(=O)c1cc2nc(N3CCC[C@@H](N)C3)n(Cc3ccccc3C#N)c(=O)c2s1` [Compound 105, (R)-2-(3-aminopiperidin-1-yl)-3-(2-cyanobenzyl)-N,N-dimethyl-4-oxo-3,4-dihydrothieno[3,2-d]pyrimidine-6-carboxamide], in experiment [1], the “DPP 7 IC50” value is recorded as “N.I”. The half-maximal inhibitory concentration (IC50) against FAP turned out to be 200 µM; on Human DPP 9 it was 257 µM; against human DPP IV, 0.027 µM. In addition, the “DPP 8 IC50” value at human DPP 8 is reported as “N.I”.
With `Cl.N#Cc1ccccc1Cn1c(N2CCC[C@@H](N)C2)nc2cc(C(=O)O)sc2c1=O` [Compound 39, (R)-2-(3-aminopiperidin-1-yl)-3-(2-cyanobenzyl)-4-oxo-3,4-dihydrothieno-[3,2-d]pyrimidine-6-carboxylic acid hydrochloride], the “DPP 7 IC50” value in experiment [1] is given as “N.I”. Also, the “FAP IC50” value on FAP is “N.I”. Besides, on Human DPP 9, the “DPP 9 IC50” value was “N.I”. For the same molecule, at human DPP 8, the “DPP 8 IC50” value was “N.I”. At human DPP IV, this molecule yielded an IC50 of 0.0283 µM.
As for `COC(=O)[C@H](Cc1ccccc1)NC(=O)c1cc2nc(N3CCC[C@@H](N)C3)n(Cc3ccccc3C#N)c(=O)c2s1` [Compound 102, (S)-methyl 2-(2-((R)-3-aminopiperidin-1-yl)-3-(2-cyanobenzyl)-4-oxo-3,4-dihydrothieno[3,2-d]pyrimidine-6-carboxamido)-3-phenylpropanoate], the “DPP 7 IC50” value in experiment [1] was “N.I”. Further, the concentration for half-maximal inhibition (IC50) stood at 68.5 µM against FAP, 32.6 µM against Human DPP 9, 27.8 µM on human DPP 8 and 0.0384 µM against human DPP IV.
With `CN(C)C(=O)c1csc2c(=O)n(Cc3ccccc3C#N)c(N3CCC[C@@H](N)C3)nc12` [Compound 63, (R)-2-(3-aminopiperidin-1-yl)-3-(2-cyanobenzyl)-N,N-dimethyl-4-oxo-3,4-dihydrothieno[3,2-d]pyrimidine-7-carboxamide], the “DPP 7 IC50” value in experiment [1] is recorded as “N.I”. In addition, the IC50 was 170 µM on FAP, 189 µM at Human DPP 9, 47.9 µM against human DPP 8 and 0.0275 µM at human DPP IV.
As to `N#Cc1ccccc1Cn1c(N2CCC[C@@H](N)C2)nc2c(C(=O)NCc3ccc(C(F)(F)F)cc3)csc2c1=O` [Compound 68, (R)-2-(3-aminopiperidin-1-yl)-3-(2-cyanobenzyl)-4-oxo-N-(4-(trifluoromethyl)benzyl)-3,4-dihydrothieno[3,2-d]pyrimidine-7-carboxamide], the IC50 in experiment [1] was 145 µM; against FAP it was 8.78 µM; against Human DPP 9 it was 100 µM; against human DPP 8, 8.16 µM; on human DPP IV, 0.023 µM.
Taken in the same sequence, the figures for `CCNC(=O)c1csc2c(=O)n(Cc3ccccc3C#N)c(N3CCC[C@@H](N)C3)nc12` [Compound 71, (R)-2-(3-aminopiperidin-1-yl)-3-(2-cyanobenzyl)-N-ethyl-4-oxo-3,4-dihydrothieno[3,2-d]pyrimidine-7-carboxamide] were 144 µM, 52.1 µM, 238 µM, 26.8 µM and 0.0143 µM.
